Patent US20230257480A1, “ENHANCING BLOOD-BRAIN BARRIER DRUG TRANSPORT BY TARGETING ENDOGENOUS REGULATORS” (THE BOARD OF TRUSTEES OF THE LELAND STANFORD JUNIOR …, priority 2019, published 2023)

System: brain parenchymal cells
Assay: Flow cytometry of brain parenchymal (CD31-/CD45-) cell uptake of tracer after ALPL inhibitor treatment
Format: in vivo, mice
Conditions: vs vehicle
Description: FIG. 12A is a dot plot representation of cell-surface, druggable gene candidates on brain endothelial cells. Genes were plotted by their degree of blood-brain barrier specificity (Daneman et al., PLoS One (2010). doi:10.1371/journal.pone.0013741) and correlation with plasma uptake. Genes were colored by their upregulation (brown) or downregulation (green) with age. FIG. 12B includes representative images of calcified nodules (Alizarin red staining) detected in aged (23 m.o.—bottom panel) but not young (3 m.o.—top panel) mice, recapitulating nodules seen in pericyte-deficient Pdgfbret/ret mice (Keller et al., Nat. Genet. (2013). doi:10.1038/ng.2723) (representative image of n=5 mice per age). FIG. 12C includes representative images of Type I Collagen expression (green) in Lectin^+ vasculature (red) in the cerebral cortex of young (3 m.o.—left panels) and aged (23 m.o.—right panels) mice. Scale bar=40 microns. FIG. 12D includes representative images of ALPL expression (yellow) in AQP4^+ vasculature (purple) in the cerebral cortex of young (3 m.o.—left panels) and aged (23 m.o.—right panels) mice. Scale bar=40 microns. FIG. 12E is a graph illustrating quantification of ALPL expression in the cerebral cortex vasculature of young (3 m.o.) and aged (23 m.o.) mice (n=7, two-sided t-test; mean+/−s.e.m.). FIG. 12F is a schematic diagram illustrating cerebrovascular ALPL inhibition. Aged (22 m.o.) mice were injected intraperitoneally with vehicle or ALPL inhibitor twice a day for three days before intravenous injection of plasma, human holotransferrin, or transferrin receptor antibody. Uptake in the brain endothelium and parenchyma was assessed by flow cytometry and confocal microscopy of the cortex and hippocampus. FIG. 12G includes representative images of ectopic ALPL activity (red) in the cerebral cortex vasculature of aged (22 m.o.) mice treated with ALPL inhibitor (anti-ALPL) or vehicle and in young (3 m.o.) mice. FIG. 12H is a graph illustrating quantification of ALPL activity in the cerebral cortex vasculature of aged (22 m.o.) mice treated with ALPL inhibitor (anti-ALPL) or vehicle and in young (3 m.o.) mice (n=6-9, one-way ANOVA with Tukey's multiple comparisons correction; mean+/−s.e.m.). FIGS. 12I-12L include graphs illustrating flow cytometry quantification of brain parenchymal (CD31−/CD45−) cell uptake of plasma in aged (22 m.o.) mice (FIG. 12I); plasma in young (3 m.o.) mice (FIG. 12J); human holo-transferrin (hu-Tf) in aged (22 m.o.) mice (FIG. 12K); or transferrin receptor antibody (TfR Ab) in aged (22 m.o.) mice (FIG. 12L) after ALPL inhibitor (anti-ALPL) and vehicle treatment, as assessed by the percent (%) of parenchymal cells that are tracer^+ and the relative mean fluorescence intensity (MFI) of tracer^+ parenchymal cells (for plasma, n=4; for hu-Tf, n=5-6; for TfR Ab, n=9, two-sided t-test; mean+/−s.e.m.). Tracer refers to plasma, hu-Tf, or TfR Ab FIG. 12M includes representative images of transferrin receptor antibody (TfR Ab) in the cortical vasculature (red) and parenchymal cells of ALPL inhibitor-treated aged (22 m.o.) mice. Arrowheads indicate TfR Ab^+ NeuN neurons. Scale bar=40 microns (left) and 10 microns (right). Data were replicated in at least 2 independent experiments.
CNS cell isolation adopted previously described methods42,139,140. Briefly, cortices and hippocampi were microdissected, minced, and digested using the Neural Dissociation Kit (Miltenyi). Suspensions were filtered through a 100 μm strainer and myelin removed by centrifugation in 0.9 M sucrose. The remaining myelin-depleted cell suspension was blocked for ten minutes with Fc preblock (CD16/CD32, BD 553141) on ice and stained for 30 minutes with antibodies to distinguish brain endothelial cells (CD31+/CD45−), astrocytes (ACSA-2+), and neurons (NeuN+ or CD90.2/Thy1.2+). For analysis of plasma uptake, at least 1,000 cells of each population of interest were analyzed per sample. […]

Q: `COc1ccc(OC)c(S(=O)(=O)Nc2cnc3ccccc3c2)c1` [ALPL inhibitor, 2,5-Dimethoxy-N-(quinolin-3-yl)benzenesulfonamide] was tested. Which “parenchymal uptake of transferrin receptor antibody” value (aged (22 m.o.) mice, TfR Ab 20 mg/kg i.v.) did it give?
A: increased

Q: And the “parenchymal uptake of human holo-transferrin” value (aged (22 m.o.) mice, hu-Tf 40 mg/kg i.v.)?
A: increased

Q: What about the “amount of plasma taken up by participating cells” value (aged mice, parenchymal cells (MFI)) of the same molecule?
A: increased

Q: What about the “percentage of plasma+ cells” value (aged mice, parenchymal cells) of the same molecule?
A: did not change

Q: And the “plasma transport across the endothelium to brain parenchymal cells” value (aged mice)?
A: increased

Q: What about the “plasma transcytosis across the young BBB to the parenchyma” value (young (3 m.o.) mice) of the same molecule?
A: did not significantly enhance
